These results are taken from EPA's ToxValDB 9.5 (doi:10.2903/j.efsa.2010.1682).

In brackets after ≈: the same amount, converted by molar mass.

Data set [1] concerns Daphnia magna. The following applies: chronic/long-term; duration: 21 days; reproduction.
Data set [2] relates to Colinus virginianus.
The test system of data set [3] is Allium cepa. The following applies: not reported; seedling emergence.
Data set [4] concerns Typhlodromus pyri. The following applies: not reported.
Data set [5] has as its system Tagia sp.
The subject of data set [6] is Apis mellifera. The conditions noted are these: acute, duration: 72 hours, mortality.
Data set [7] has as its system Rattus norvegicus.
Data set [8] deals with Canidae. The conditions noted are these: oral, Dog Other, organ weight.
In data set [9] the test system is Anas platyrhynchos.
Data set [10] concerns Oncorhynchus mykiss.
The test system of data set [11] is Cucumis sativus. The conditions noted are these: not reported; seedling emergence.
Data set [12] deals with Bibionidae. The following applies: chronic/long-term.

In general, NOAEL refers to the highest tested level that showed no adverse finding. Regarding `CCCCC(C#N)(Cn1cncn1)c1ccc(Cl)cc1` (centres undefined) [Myclobutanil], the NOEC in data set [1] was 1 mg/L; in data set [2] (reproduction developmental) it was 24.2 mg/kg-day; in [5] (chronic/long-term), 10.3 mg/kg; in [9] (reproductive), 31.6 mg/kg-day; in [10] (chronic/long-term, duration: 21 days, growth) it was 0.2 mg/L; in data set [12], 6.07 mg/kg. This compound showed an NOEC in [12] (duration: 30 days) of 4.98 mg/L. Further, the LC50 in [2] (acute, oral, diet, mortality) is greater than 567 mg/kg-day; in [5] (acute, mortality), 250 mg/kg; in data set [9] (short-term, oral, feed, mortality), greater than 1540 mg/kg-day; in data set [10] (acute, duration: 96 hours, mortality), 2 µg/mL (≈ 6.93 µM). In addition, the LD50 was 510 mg/kg-day in [2] (acute, oral, mortality); greater than 39.6 µg/piece in data set [6] (dermal); greater than 33.9 µg/piece in data set [6] (oral, unspecified); 1600 mg/kg-day in data set [7] (acute, oral, M, mortality). Besides, the LEL is 300 g/ha in [3], 36 g/ha in data set [4] (mortality), 36 g/ha in data set [4] (reproduction) and 300 g/ha in data set [11]. Besides, the no observed adverse effect level (NOAEL) in data set [7] (chronic, duration: 2 years, histopathology: nonneoplastic) is 2.5 mg/kg-day; in [7] (developmental, development), 31 mg/kg-day; in data set [8] (chronic, duration: 1 years), 3.09 mg/kg-day; in data set [8] (subchronic, duration: 90 days), 3.09 mg/kg-day. In data set [7] (reproduction developmental, reproduction), the NOEL was 16 mg/kg-day.
